Results: patent US20220186286A1, “FLUORESCENT PROBE FOR DETECTING ACTIVATION OF SIALIDASE” (The University of Tokyo, priority 2019, published 2022)

Tests used:
[1] = system: neuraminidase (from Arthrobacter ureafaciens); assay: dynamic (kinetic) parameters of the probes as neuraminidase substrates; type: biochemical; details: for Km / Vmax / kcat: 50 mM NaOAc, 2 mM CaCl2, 100 μg/mL BSA buffer (pH 6.5), 60 minutes; for kcat/Km relative to that of 4-MUNANA: fold larger than 4-MUNANA
Procedure: The probe was dissolved in 200 μL (total volume) of 50 mM NaOAc, 2 mM CaCl2, 100 μg/mL BSA buffer (pH 6.5) at various concentrations. A neuraminidase (from Arthrobacter ureafaciens, […]) was added, and the increase in fluorescence for 60 minutes was evaluated. Concerning the dynamic parameter Vmax and Km, the corrected data were calculated using the following formula.
V0 is the steady state speed of the probe substrate rotation by the neuraminidase, Vmax is the maximum speed (mM/min), X is the probe concentration in the reaction mixture (mM), and Km is the Michaelis constant (mM) at which the reaction speed is half of Vmax. Formula 1 was fitted to the data using KaleidaGraph 4.5.2 software (Synergy Software).
The dynamic parameters of HMRef-Neu5Ac and HMRef-S-Neu5Ac were determined in accordance with the method previously described by Govorkova et al., and compared to that of a commercial sialidase substrate, 4-MUNANA.

[2] = system: neuraminidase from Arthrobacter ureafaciens; assay: in vitro enzymatic reaction with sialidase, change in fluorescence intensity over time; type: biochemical; details: for increase in the fluorescence in reaction with the sialidase: 1 μM probe, 0.01 U enzyme, 100 mM NaOAc 2 mM CaCl2 buffer pH 7.4, 37° C.; for change in the fluorescence in the absence of enzyme: identical reaction without enzyme, pH 7.4, 37° C.
Procedure: (§1) The optical property of the probe was acquired in a 0.2 M sodium phosphate buffer, a 100 mM NaOAc, 2 mM CaCl2, pH 6.5 buffer, or a 50 mM NaOAc, 2 mM CaCl2, 100 μg/mL BSA, pH 7.4 buffer. For an in vitro enzymatic reaction, the probe DMSO stock solution was diluted with a 100 mM NaOAc, 2 mM CaCl2, pH 7.4 buffer so that the final concentration was 1 μM. First, the fluorescence of the solution before adding a sialidase was measured every second (excitation wavelength: 490 nm, emission wavelength: 520 nm). Then, a neuraminidase from Arthrobacter ureafaciens (0.01 U) was used for this assay.
The fluorescence intensity of HMRef-Neu5Ac obtained in Synthesis Example 1 was changed through an enzymatic reaction with a neuraminidase (Arthrobacter ureafaciens), and the change in the fluorescence intensity of HMRef-Neu5Ac over time was examined. HMRef-Neu5Ac was dissolved in a 100 mM NaOAc 2 mM CaCl2 buffer (pH 7.4) to prepare a 1 μM solution, and 0.01 U of the enzyme was added 60 seconds after the start of measurement. At the time of measurement, the temperature was 37° C., and the concentration of an enzyme inhibitor (DANA) was 100 μM.
In the same manner as in the evaluation of HMRef-Neu5Ac, the reaction with a sialidase and the absorption spectrum at each pH were acquired for HMRef-S-Neu5Ac (FIGS. 3a and 3b).

[3] = photochemical properties (absorption, emission, quantum yield, pKa, pKcycl); type: physicochemical; details: for pKcycl: spiro ring formation
Procedure: UV-vis spectra were obtained with a spectrophotometer, Shimadzu UV-2450.
Fluorescence spectra were obtained with Hitachi F-7000. The absolute fluorescence quantum efficiency was measured using an absolute PL quantum yield measuring apparatus, Quantuarus-QY (Hamamatsu Photonics K. K.). The probe was dissolved in dimethyl sulfoxide (DMSO, grade for fluorometry, DOJINDO LABORATORIES) to obtain a stock solution.
as §1

[4] = stability of the probe at various pH values (fluorescence intensity and absorption spectra over time); type: physicochemical; details: for stability: change in fluorescence intensity over time at various pH values: 0.2 M sodium phosphate buffer, 2 hours, ex/em 485 nm/535 nm; for change of absorption spectra 1.5 hours after dissolution: 0.2 M sodium phosphate buffers of various pH, immediately after vs 1.5 hours after dissolution
Procedure: HMRef-Neu5Ac was dissolved in 0.2 M sodium phosphate buffers having various pH values, and the absorption spectra were measured immediately after and 1.5 hours after the dissolution.
The stability of HMRef-Neu5Ac and that of HMRef-S-Neu5Ac were directly compared by recording the changes in fluorescence intensity over time at a pH within a range. The initial fluorescence intensity values of both the probes depend on the pH value according to the pKcycl values of the probes. That is, the lower the pH is, the larger the initial fluorescence intensity value is.
The measurement was performed in 0.2 M sodium phosphate buffer at 37° C. and measurements were taken every 5 minutes. In each measurement, excitation/emission wavelengths of 485 nm/535 nm were used.

[5] = pH 2, 0.2M sodium phosphate buffer
[6] = pH 7.4, 0.2M sodium phosphate buffer

Row | pKa ([3]; 0.2 M sodium phosphate buffer) | Absorption max. [3, 6] [nm] | Emission max. [3, 6] [nm] | SMILES | Km [1] [µM] | Vmax [1] [nM/s] | kcat [1] [s⁻¹] | increase in the fluorescence in reaction with the sialidase [2] | change in the fluorescence in the absence of enzyme [2] | kcat/Km relative to that of 4-MUNANA [1] [fold] | Absorption max. [3, 5] [nm] | Emission max. [3, 5] [nm] | fluorescence quantum yield (absolute fluorescence quantum efficiency) [3, 5] | fluorescence quantum yield (absolute fluorescence quantum efficiency) [3, 6] | pKcycl [3] | stability: change in fluorescence intensity over time at various pH values ([4]; 37° C.) | change of absorption spectra 1.5 hours after dissolution [4] | time to complete hydrolysis ([4]; pH 2 and pH 4, 0.2 M sodium phosphate buffer, 37° C.)
1 |  |  |  | CC(=O)N[C@@H]1[C@@H](O)C[C@](Oc2ccc3c(C)cc(=O)oc3c2)(C(=O)O)O[C@H]1C(O)[C@H](O)CO (stereo partly drawn) [4-MUNANA, 2′-(4-methylumbelliferyl)-α-D-N-acetylneuraminic acid, reference compound] | 37 | 1.73 | 2.6 |  |  |  |  |  |  |  |  |  |  | 
2 |  |  |  | CC(=O)N[C@H]1[C@H]([C@H](O)[C@H](O)CO)O[C@@](Oc2ccc(COc3ccc4c(c3)Oc3cc(NCC(F)(F)F)ccc3C43OCc4ccccc43)cc2)(C(=O)O)C[C@@H]1O (some centres unmarked) [HMRef-S-Neu5Ac] | 11 | 7.03 | 10.7 | 130 fold | remained at a constant low level | ~13 | 484 | 522 | 0.537 | 0.271 | 5.3 | changed little over the time | changed little | 
3 | 4.4 | 498 | 518 | O=c1ccc2c(-c3ccccc3CO)c3ccc(NCC(F)(F)F)cc3oc-2c1 [HMRef, reference compound] |  |  |  |  |  |  | 479 | 515 | 0.716 | 0.777 | 10.2 |  |  | 
4 |  |  |  | CC(=O)N[C@H]1[C@H]([C@H](O)[C@H](O)CO)O[C@@](Oc2ccc3c(c2)Oc2cc(NCC(F)(F)F)ccc2C32OCc3ccccc32)(C(=O)O)C[C@@H]1O (some centres unmarked) [HMRef-Neu5Ac] | 19 | 13.5 | 20.6 | up to 40 fold | 3 fold | ~16 | 484 | 522 | 0.650 | 0.323 | 4.8 | clear instability at all the pH values | greatly changed in shape | about 40 minutes
